The target in experiment [1] is T1, 5-HT2A receptor (Homo sapiens, UniProt P28223). In words: Functional activity, FLIPR calcium assay, CHO cells expressing human 5-HT2A. Conditions: for EC50: FLIPR, CHO cells expressing human 5-HT2A, read-out: h5-HT2A EC50; for h5-HT2A Rel. Eff.: relative efficacy vs response to 10 μM 5-HT (defined as 100%). The class given is cell-based. Set-up: expressed in transfected cells; host or cells: CHO cells. As for the experimental part: (§1) The functional activity of compounds of formula (I) was assayed using a Fluorimetric Imaging Plate reader (FLIPR). CHO cells expressing the human 5-HT2C or human 5-HT2A receptors were counted and plated into standard 96 well microtitre plates on the day before testing to give a confluent monolayer. The cells were then dye loaded with the calcium sensitive dye, Fluo-3-AM. Unincorporated dye was removed using an automated cell washer to leave a total volume of 100 μL/well of assay buffer (Hanks balanced salt solution containing 20 mM Hepes and 2.5 mM probenecid). The drug (dissolved in 50 μL of the assay buffer) was added at a rate of 70 μL/sec to each well of the FLIPR 96 well plate during fluorescence measurements. The measurements were taken at 1 sec intervals and the maximum fluorescent signal was measured (approx 10–15 secs after drug addition) and compared with the response produced by 10 μM 5-HT (defined as 100%) to which it was expressed as a percentage response (relative efficacy). Dose response curves were constructed using Graphpad Prism (Graph Software Inc.).
T1 sequence (P28223 whole entry): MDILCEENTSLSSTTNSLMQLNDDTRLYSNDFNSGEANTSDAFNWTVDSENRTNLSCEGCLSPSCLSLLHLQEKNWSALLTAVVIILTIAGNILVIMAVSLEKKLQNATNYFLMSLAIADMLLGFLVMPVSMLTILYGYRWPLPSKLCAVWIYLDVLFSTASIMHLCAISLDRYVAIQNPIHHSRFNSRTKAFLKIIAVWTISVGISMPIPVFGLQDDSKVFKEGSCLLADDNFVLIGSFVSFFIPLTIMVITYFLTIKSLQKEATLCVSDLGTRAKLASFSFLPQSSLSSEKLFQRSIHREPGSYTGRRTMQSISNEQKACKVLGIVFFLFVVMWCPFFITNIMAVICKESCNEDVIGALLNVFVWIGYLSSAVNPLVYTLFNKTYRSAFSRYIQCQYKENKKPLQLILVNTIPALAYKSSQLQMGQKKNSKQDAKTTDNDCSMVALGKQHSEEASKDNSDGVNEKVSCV

Experiment [2] addresses T1, 5-HT2A receptor. In words: Binding to the 5-HT2A receptor, [125I]-DOI, CHO cell line (Method (c)). Further details: expressed in transfected cells; host or cells: CHO cell line. Conditions: read-out: Ki (2A). As for the experimental part:
(§2) The binding of compounds of formula (I) to serotonin receptors was determined in vitro by standard methods. The activity of the test compounds was investigated in accordance with the assays given below.
Method (c): For the binding to the 5-HT2A receptor, the 5-HT2A receptors were radiolabeled with [^125I]-DOI. The affinity of the compounds for 5-HT2A receptors in a CHO cell line was determined according to the procedure of D. J. McKenna and S. J. Peroutka, J. Neurosci., 1989, 9, 3482–90.

In experiment [3] the target is T2, 5-HT2C receptor (Homo sapiens, UniProt P28335). Briefly: Functional activity, FLIPR calcium assay, CHO cells expressing human 5-HT2C. The class given is cell-based. Further details: expressed in transfected cells; host or cells: CHO cells. Conditions: for h5-HT2C Rel. Eff.: relative efficacy vs response to 10 μM 5-HT (defined as 100%). As for the experimental part: as §1
T2 sequence (P28335 33-458): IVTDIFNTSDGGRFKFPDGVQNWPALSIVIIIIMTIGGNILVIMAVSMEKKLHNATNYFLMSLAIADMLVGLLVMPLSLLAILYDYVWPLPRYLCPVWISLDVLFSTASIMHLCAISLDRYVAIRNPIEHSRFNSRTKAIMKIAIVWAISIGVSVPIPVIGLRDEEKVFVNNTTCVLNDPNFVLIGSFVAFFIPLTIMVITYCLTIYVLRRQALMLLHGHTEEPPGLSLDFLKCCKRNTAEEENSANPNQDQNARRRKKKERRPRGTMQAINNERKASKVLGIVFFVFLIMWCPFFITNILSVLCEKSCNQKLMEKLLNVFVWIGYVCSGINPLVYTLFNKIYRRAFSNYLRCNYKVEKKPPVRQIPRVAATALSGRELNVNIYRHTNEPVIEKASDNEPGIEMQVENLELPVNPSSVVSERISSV

The target of a further experiment is T3, human 5-HT2B receptors (Homo sapiens, UniProt P41595).
T3 construct: expressed in transfected cells; host or cells: CHO cell line
T3 sequence (P41595 whole entry): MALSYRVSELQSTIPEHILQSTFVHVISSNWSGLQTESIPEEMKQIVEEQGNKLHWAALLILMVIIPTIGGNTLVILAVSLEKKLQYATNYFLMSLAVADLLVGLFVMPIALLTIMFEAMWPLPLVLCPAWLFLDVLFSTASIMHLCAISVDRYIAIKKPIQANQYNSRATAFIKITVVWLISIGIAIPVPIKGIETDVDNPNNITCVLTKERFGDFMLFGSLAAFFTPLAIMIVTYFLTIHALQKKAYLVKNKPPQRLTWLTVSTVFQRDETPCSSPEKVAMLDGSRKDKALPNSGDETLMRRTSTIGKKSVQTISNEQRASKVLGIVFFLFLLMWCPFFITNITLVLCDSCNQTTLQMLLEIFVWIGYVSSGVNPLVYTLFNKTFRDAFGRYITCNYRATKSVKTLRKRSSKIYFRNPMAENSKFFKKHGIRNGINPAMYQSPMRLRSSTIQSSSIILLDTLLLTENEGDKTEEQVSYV
Briefly: Binding to the 5-HT2B receptor, [3H]-5-HT, CHO cell line (Method (b)). The settings on record: human 5-HT2B in CHO cell line, read-out: Ki (2B). As for the experimental part: as §2
Method (b): For the binding to the 5-HT2B receptor, the 5-HT2B receptors were radiolabeled with [^3H]-5-HT. The affinity of the compounds for human 5-HT2B receptors in a CHO cell line was determined according to the procedure of K. Schmuck, C. Ullmer, P. Engels and H. Lubbert, FEBS Lett., 1994, 342, 85–90.

Experiment [4] addresses T2, 5-HT2C receptor. In words: Binding to the 5-HT2C receptor, [3H]-5-HT, CHO cell line (Method (a)). Set-up: expressed in transfected cells; host or cells: CHO cell line. As for the experimental part:
as §2
Method (a): For the binding to the 5-HT2C receptor, the 5-HT2C receptors were radiolabeled with [^3H]-5-HT. The affinity of the compounds for 5-HT2C receptors in a CHO cell line was determined according to the procedure of D. Hoyer, G. Engel and H. O. Kalkman, European J. Pharmacol., 1985, 118, 13–23.

Results on two compounds are retold here after patent publication US7098337B2, “1,2,3,4,9,9a-hexahydro-2,4a,5-triaza-fluorene and 1,2,3,4-tetrahydro-2,4a,5-triaza-fluorene derivatives” (priority 2002, dated 2006).

A word on the EC50: it is the concentration giving half of the maximal effect. In general, Ki refers to the equilibrium dissociation constant of an inhibitor or competing ligand from its target. On to `Cc1c2n(c3nc(Cl)ccc13)[C@H](C)CNC2` [Example 20, (R)-6-Chloro-4,9-dimethyl-1,2,3,4-tetrahydro-2,4a,5-triaza-fluorene], for which the EC50 at 5-HT2A receptor [1] is 11.1 nM; at 5-HT2C receptor [3], 7.6 nM. Besides, the “h5-HT2A Rel. Eff.” value at 5-HT2A receptor [1] worked out at 12.0%. The Ki on 5-HT2A receptor [2] is 178 nM; on human 5-HT2B receptors, 108 nM; at 5-HT2C receptor [4], 5.1 nM. For the same compound, on 5-HT2C receptor [3], the “h5-HT2C Rel. Eff.” value is 93.3%.
For the compound `CCc1ccc2c(n1)N1[C@@H](CNC[C@H]1C)C2` [Example 9, (4R,9aR)-6-Ethyl-4-methyl-1,2,3,4,9,9a-hexahydro-2,4a,5-triaza-fluorene], the concentration giving a half-maximal response (EC50) on 5-HT2A receptor [1] is 644 nM; at 5-HT2C receptor [3], 85.4 nM. Moreover, on 5-HT2A receptor [1], the “h5-HT2A Rel. Eff.” value amounted to 29.6%. In addition, the inhibitory constant (Ki) at 5-HT2A receptor [2] was determined as 212 nM; on human 5-HT2B receptors it was 271 nM; at 5-HT2C receptor [4] it was 16.5 nM. Further, the “h5-HT2C Rel. Eff.” value on 5-HT2C receptor [3] is reported as 91.4%.
